Measurements as given in publication PMC7663799, “Endocytosis and Trafficking of Heparan Sulfate Proteoglycans in Triple-Negative Breast Cancer Cells Unraveled with a Polycationic Peptide” (International Journal of Molecular Sciences, 2020).

Experiments:
MDA-MB-231 cells [1] = assay: NT4 binding to plasma membrane and internalization, confocal immunofluorescence; assay type: cell-based, human; settings: confocal microscopy
Method: (§1) MDA-MB-231 cells were plated at a density of 5 × 10^4 per well in 24-well plates with glass cover slides and maintained overnight at 37 °C, 5% CO2.
Cells were incubated with 2 μM NT4-biotin and 0.5 μg/mL Streptavidin-Atto 488 in PBS-1% BSA at room temperature for 15 min, then washed and grown in medium for 5, 15 and 30 min at 37 °C to allow peptide internalization. They were then fixed with PBS-4% paraformaldehyde (PFA) and saturated with PBS-5% BSA 0.3%-Triton X-100. HS was stained using 1 µg/mL anti-heparan sulfate (10E4 epitope) (Amsbio, Abingdon, UK) in PBS-1% BSA for 1 h, followed by incubation with 1 μg/mL anti-mouse IgG Rhodamine Red-X (Thermo Fisher Scientific, Waltham, MA, USA). Nuclei were stained with DAPI (0.5 μg/mL in PBS-1% BSA). Each step was followed by three washes in PBS. Peptide binding was analyzed by confocal laser microscope (Leica TCS SP5) with 380 λ ex and 450–470 λ em, 501 λ ex and 523 λ em and 633 λ ex and 660–680 λ em for DAPI, Atto 488 and Atto 647, respectively. The experiment was repeated three times and three different fields were acquired for each sample.

MDA-MB-231 cells [2] = assay: 2D migration, in vitro wound-healing (scratch) assay; assay type: cell-based, human; settings: 10 μM NT4 in complete medium, p = 0.0428, n = 2
Method: Cell migration was measured using an in vitro wound-healing assay. MDA-MB231 cells (5.25 × 10^4) were seeded on each side of a culture insert for live cell analysis (Ibidi, Munich, Germany). Inserts were placed in the wells of a 24-well plate and the cells were incubated at 37 °C and 5% CO2 to confluence. The inserts were removed with sterile tweezers to create a cell-free area of approximately 500 μm. The cells were treated with 10 μM NT4 peptide in complete medium and allowed to migrate in an appropriate incubator of a DMi8 (Leica Microsystems, Wetzlar, Germany) microscope. The same instrument was used to take pictures at time zero and every 5 min for 11 h.
The percentage of void area with respect to time 0 was determined using Tscratch. The time-lapse image stacks were also analyzed using ImageJ and the plug-in Chemotaxis and Migration Tool.

CDC42-GTP = assay: G-LISA activation assay, CDC42; assay type: cell-based, human; settings: starved MDA-MB-231
Method: Cells were seeded in six-well plates (5 × 10^5 cells per well) and maintained for 12 h in a CO2 incubator. To measure Rac-1, RhoA and CDC42 GTPases, they were treated with 10 µM NT4 in DMEM-0.1% BSA, serum-free, for 12 h at 37 °C and then incubated with 0.1 μg/mL hEGF (Cell Signaling) for 2 min for Rac-1 and CDC42 GTPases and for 5 min for RhoA GTPase. Cells were washed with cold PBS, lysed and processed for colorimetric G-LISA activation assays (Cytoskeleton, Denver, CO, USA), according to the manufacturer’s instructions. The activated forms of the G proteins were detected by incubation with specific primary antibody, followed by a secondary antibody conjugated with HRP and a detection reagent. The signal was read by measuring absorbance at 490 nm using a microplate reader. […]

Rac1-GTP = assay: G-LISA activation assay, Rac1; assay type: cell-based, human; settings: starved MDA-MB-231
Method: (§2) Cells were seeded in six-well plates (5 × 10^5 cells per well) and maintained for 12 h in a CO2 incubator. To measure Rac-1, RhoA and CDC42 GTPases, they were treated with 10 µM NT4 in DMEM-0.1% BSA, serum-free, for 12 h at 37 °C and then incubated with 0.1 μg/mL hEGF (Cell Signaling) for 2 min for Rac-1 and CDC42 GTPases and for 5 min for RhoA GTPase. Cells were washed with cold PBS, lysed and processed for colorimetric G-LISA activation assays (Cytoskeleton, Denver, CO, USA), according to the manufacturer’s instructions. The activated forms of the G proteins were detected by incubation with specific primary antibody, followed by a secondary antibody conjugated with HRP and a detection reagent. The signal was read by measuring absorbance at 490 nm using a microplate reader. The experiment was repeated three times.

Rac-1-GTP = assay: Rac1 pulldown assay (GST-PAK1-PBD beads, immunoblot); assay type: cell-based, human; settings: MDA-MB-231, no EGF
Method: Rac1 activity was measured by pulldown assay using the active Rac1 detection kit (Cell Signaling), according to the manufacturer’s instructions. Cells were seeded in six-well plates (5 × 10^5 cells per well) and maintained for 24 h in a CO2 incubator. Cells were washed with cold PBS and lysed. Protein lysates were centrifuged and the supernatant was collected in new tubes containing beads pre-coupled with GST–PAK1-PBD and incubated under rotation at 4 °C for 60 min. The beads were washed and the proteins bound to them were separated by SDS-PAGE. The amounts of active Rac1 were determined by immunoblot analysis. Signals were detected using a LAS4010 imaging system (GE Healthcare, Chicago, IL, USA).

RhoA-GTP = assay: G-LISA activation assay, RhoA; assay type: cell-based, human; settings: starved MDA-MB-231, n = 3
Method: as §2

heparan sulfate chains = settings: surface plasmon resonance; cited from earlier work
MDA-MB231 cells = settings: flow cytometry; cited from earlier work
Method: The peptide bound to the plasma membrane (Figure 1A), most was internalized in cells within 15–30 min (Figure 1B,C) and it was completely endocytosed within 1 h (Figure 1D). The antibody anti-HS clone 10E4 [20], the epitope of which includes an N-sulfated glucosamine r ...

proteolytic enzymes = settings: imparted by branched structure; cited from earlier work
From the text: NT4 is a tetrabranched peptide obtained by synthesizing four copies of the 13-amino-acid sequence on a branched core of lysines. […] The peptide has already been tested in animal models of cancer and has shown good specificity for tumor versus healthy cells. It also countered the invasive ...

[3] = test system: NT4 internalization in MDA-MB-231 cells; assay: Inhibition of NT4 internalization by pharmacological agents, confocal microscopy; assay type: cell-based, human; settings: for reduction of NT4 internalization: ±13%
Method: as §1
Cells were pretreated for 15 min with 1–10 μg/mL Chlorpromazine (Merck, Darmstadt, Germany), 25 μg/mL Nystatin (Merck), 80 μM Dynasore (Merck) and 50 µM Amiloride (Merck) at 37 °C and then incubated with 2 μM NT4-biotin and 0.5 μg/mL Streptavidin-Atto 488 in PBS-1% BSA at room temperature for 15 min. To study macropinocytosis in the presence of Amiloride, 5 mg/mL Rhodamine B isothiocyanate–Dextran in PBS-1% BSA (Merck) was incubated at room temperature for 15 min. Cells were then washed and grown in medium, with and without pharmacological agents, for 15 and 30 min at 37 °C to allow peptide internalization. After internalization, they were fixed with PBS-4% PFA and plasma membranes were stained with 2.5 μg/mL wheat germ agglutinin, Alexa Fluor 647 (Thermo Fisher Scientific) conjugate in PBS-1% BSA, incubated for 10 min at room temperature. Nuclei were stained with DAPI (0.5 μg/mL in PBS-1% BSA). Each step was followed by three washes in PBS.
Peptide binding was analyzed by confocal laser microscope (Leica TCS SP5) with 501 λ ex and 523 λ em for Atto 488, 633 λ ex and 660–680 λ em for Atto 647 and 364 λ ex and 458 λ em for DAPI. Images were single Z-planes for all channels used. All images were processed and quantified using the Leica Application Suite X program (LAS X) of the confocal laser microscope (Leica TCS SP5). The experiment was repeated at least three times and at least three different fields were acquired for each sample.

## (pyELYENKPRRPYIL)4K2K-beta-Ala [NT4]
MDA-MB-231 cells [1]; 2 μM NT4-biotin + 0.5 μg/mL Streptavidin-Atto 488, 15 min RT in PBS-1% BSA, then medium at 37 °C
  time within which most of the peptide was internalized in cells: 15 to 30 min
MDA-MB-231 cells [1]; 2 μM NT4-biotin + Streptavidin-Atto 488, 37 °C
  time within which the peptide was completely endocytosed: ≤ 1 h
MDA-MB-231 cells [2]
  effect on MDA-MB-231 migration (gap closure in 8 h): slowed MDA-MB-231 migration
CDC42-GTP; 10 µM NT4 12 h, no EGF
  effect on CDC42 activation without EGF: no effect on CDC42 activation
CDC42-GTP; 10 µM NT4 12 h, then 0.1 μg/mL hEGF 2 min, n = 2
  effect on EGF-induced CDC42 activation: mitigates activation of CDC42 induced by the growth factor
Rac1-GTP; 10 µM NT4 12 h, then 0.1 μg/mL hEGF 2 min
  effect on EGF-induced Rac1 activation: not significantly changed
Rac-1-GTP
  effect on basal levels of Rac-1-GTP: not affected
RhoA-GTP; 10 µM NT4 12 h alone, without EGF
  reduction of RhoA (RhoA-GTP): 20%
RhoA-GTP; EGF with NT4: 10 µM NT4 12 h, then 0.1 μg/mL hEGF 5 min
  reduction of RhoA (RhoA-GTP): 21%
Heparan sulfate chains
  binding to heparan sulfate chains: bind heparan sulfate chains
MDA-MB231 cells
  binding to MDA-MB231 cells: bind to MDA-MB231 cells
Proteolytic enzymes
  stability against proteolytic enzymes: stability against proteolytic enzymes

## O=C(N/N=C/c1ccc(O)c(O)c1)c1cc2ccccc2cc1O [dynasore]
[3]; 80 μM dynasore, n = 6, p = 0.0043
  effect on NT4 internalization: no longer internalized NT4

## C[C@@H]1[C@H](O)[C@@H](C)/C=C/C=C/CC/C=C/C=C/C=C/C=C/C(O[C@H]2O[C@H](C)[C@@H](O)[C@H](N)[C@@H]2O)CC2O[C@](O)(CC(O)C(O)CCC(O)CC(O)CC(O)CC(=O)O[C@H]1C)CC(O)C2C(=O)O (some centres unmarked) [nystatin]
[3]; 25 μg/mL nystatin, 15 min, 2 μM NT4-biotin, n = 9, p = 0.0345
  inhibition of NT4 endocytosis: 60%

## N=C(N)NC(=O)c1nc(Cl)c(N)nc1N [Amiloride]
[3]; 50 µM amiloride pre-treatment, p = 0.0461
  impairment of NT4 internalization: more than 50%

## CN(C)CCCN1c2ccccc2Sc2ccc(Cl)cc21 [chlorpromazine]
[3]; chlorpromazine 1 μg/mL, n = 3, p = 0.0279
  reduction of NT4 internalization: 27%
[3]; chlorpromazine 10 μg/mL, n = 4, p = 0.0327
  reduction of NT4 internalization: 57%

## EGF: growth factor (hEGF, Cell Signaling) used to stimulate Rho GTPases
CDC42-GTP; 0.1 μg/mL hEGF 2 min
  effect on CDC42-GTP: increased
Rac1-GTP; 0.1 μg/mL hEGF 2 min
  effect on Rac1-GTP: transiently activated
RhoA-GTP; 0.1 μg/mL hEGF 5 min alone
  reduction of RhoA (RhoA-GTP): 26%
